# Experimental data published in article PMC9385719, “Cryo-EM structures of the channelrhodopsin ChRmine in lipid nanodiscs” (Nature Communications, 2022).
# Target: T1, ChRmine (Rhodomonas lens, UniProt Z9FJ57BNO3)
# T1 construct: residues 1-309 of R. lens cation channelrhodopsin 1; C-terminal PreScission site-linker-sfGFP-7xHis, cleaved; expressed in Sf9; no N-terminal tag, Met1 removed, Ala2 acetylated; residues 2-285 modeled; homotrimer in MSP1E3D1 nanodiscs
# T1 sequence (Z9FJ57BNO3 2-309): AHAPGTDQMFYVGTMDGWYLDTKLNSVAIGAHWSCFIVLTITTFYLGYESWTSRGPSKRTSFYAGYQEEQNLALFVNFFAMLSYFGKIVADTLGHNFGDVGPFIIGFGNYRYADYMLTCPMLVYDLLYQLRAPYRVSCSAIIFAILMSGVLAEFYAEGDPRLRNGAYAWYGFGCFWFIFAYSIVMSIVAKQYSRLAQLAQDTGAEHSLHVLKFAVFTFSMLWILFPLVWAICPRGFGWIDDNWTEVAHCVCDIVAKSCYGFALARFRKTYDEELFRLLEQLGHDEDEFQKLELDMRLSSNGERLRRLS
# Test: cryo-EM structure, […] Å, lipid nanodisc
# Assay type: binding
# Settings: covalent; Schiff base to K257; MSP1E3D1 nanodisc with DOPE/POPS/POPC, pH 7.5; 5 µM all-trans retinal added to expression culture; small and large nanodisc forms
smiles,measurement,value
CC1=C(/C=C/C(C)=C/C=C/C(C)=C/C=O)C(C)(C)CCC1 [all-trans retinal],"cryo-EM structure, 2.7 Å, lipid nanodisc",(K257) on TM7 is covalently linked to a molecule of all-trans retinal through a Schiff base
